Assays:
Pgp [1] = biological target: T1, Pgp (Mus musculus, UniProt P21447); assay: ISF Aβ in vivo microdialysis after acute pharmacologic inhibition of Pgp; set-up: species or system APPsw mice; settings: 80 mg/kg intravenous
T1 construct: from tissue; host or cells: brain (blood-brain barrier) of living 3 month old APPsw+/- (Tg2576) mice
Method: In vivo microdialysis to assess brain ISF Aβ1-x in the hippocampus of awake, freely moving 3 month old APPsw^+/− mice was performed exactly as described (Cirrito, J. R., et al. 2003. J. Neurosci. 23:8844-8853; DeMattos, R. B., et al. 2004. Neuron. 41:193-202). Aβ1-x represents all Aβ peptides beginning at amino acid 1 of the N-terminus with the C-terminus being variable but predominantly either ending at position 40 or 42. An initial 4-6 hour recovery period elapsed after guide implantation and probe insertion to allow for tissue recovery, followed by collection of microdialysis samples for 5 hours at one-hour intervals at a flow rate of 1.5 μl/min to establish basal level of ISF Aβ. […] Concentrations of ISF Aβ1-x for each mouse were expressed as the percentage of basal level for each mouse (mean of 5 hours prior to treatment).
Acute inhibition of Pgp activity was assessed using APPsw mice (also called Tg2576). […] Using in vivo microdialysis in awake, freely moving mice (Cirrito, J. R., et al. 2003. J. Neurosci. 23:8844-8853; DeMattos, R. B., et al. 2004. Neuron. 41:193-202), a basal concentration of ISF Aβ was determined over 5 hours. Mice were then treated with either vehicle or XR9576 and ISF Aβ levels were assessed for an additional 10 hours (FIG. 2A). […]

LRP1 = LRP1 expression in cerebral capillaries by Western blot after acute inhibition of Pgp; assay type: in vivo, APPsw mice; settings: ten hours after treatment, 80 mg/kg intravenous
Method: Hippocampal tissue from 12 month old APPsw, Pgp-wild type and APPsw, Pgp-null littermates was homogenized in 150 mM NaCl, 50 mM Tris pH 7.4, 0.5% deoxycholic acid, 0.1% SDS, 1% Triton X-100, 2.5 mM EDTA, and protease inhibitors. Western blotting for MRP1, LRP1, and RAGE were performed using 3-8% NuPAGE Tris-Acetate gels (Invitrogen) with thirty micrograms of protein loaded per lane. Cerebral microvessels from 2-3 month old PGP-wildtype (FVB wild type) and Pgp-null mice were isolated as described (Zlokovic, B. V., et al. 1993. J. Biol. Chem. 268:8019-8025.). […] Bands were detected with Lumigen-TMA6 (Amersham Biosciences) and captured digitally using the Kodak ImageStation 440CF. The relative absorbance of each band was detected by densitometry and normalized to protein loaded in each lane. […]
Acute inhibition of Pgp activity was assessed using APPsw mice (also called Tg2576). […] Using in vivo microdialysis in awake, freely moving mice (Cirrito, J. R., et al. 2003. J. Neurosci. 23:8844-8853; DeMattos, R. B., et al. 2004. Neuron. 41:193-202), a basal concentration of ISF Aβ was determined over 5 hours. Mice were then treated with either vehicle or XR9576 and ISF Aβ levels were assessed for an additional 10 hours (FIG. 2A). […] Ten hours after treatment with either vehicle or XR9576, cerebral microvessels were also isolated and assessed for levels of LRP1 by Western blot.

Pgp [2] = assay: [99mTc]Sestamibi transport and biodistribution; assay type: in vivo, mice; settings: for brain content of the tracer: five minutes after intravenous bolus injection (2 μCi)
Method: The radiopharmaceutical [^99mTc]Sestamibi (Bristol-Myers Squibb Co.) was prepared from a one-step commercial kit formulation by addition of [^99mTc]TcO4^− according to the manufacturer's recommendations (25). […] Data are expressed as percent injected dose per gram tissue [(μCi [^99mTc]Sestamibi in tissue) (μCi injected [^99mTc]Sestamibi)^−1(g tissue)^−1×100] and are reported as mean±SEM (n=3-4) or ±range (n=2).
APPsw^+/− mice were bred to mdr1a/b^−/− animals to produce littermate mice that were positive for the APPsw transgene and either Pgp-null (APPsw^+/−, mdr1a/b^−/−) or Pgp wild type (APPsw^+/−, mdr1a/b^+/+). […] Normally, [^99mTc]Sestamibi is readily transported out of the brain by Pgp.

Pgp [3] = assay: BBB transport: clearance of radiotracers from the brain after intracerebral microinjection; settings: both groups (Pgp-wild type and Pgp-null); 30 minutes; co-injected with [125I]Aβ42
Method: Transport of human [^125I]Aβ40 or [^125I]Aβ42 across the BBB and the associated calculations were performed as described (DeMattos, R. B., et al. 2002. Science. 295:2264-2267; Zlokovic, B. V., et al. 2000. Nat. Med. 6:718-719.). Briefly, a guide cannula was implanted stereotaxically into the right caudate-putamen of anesthetized mice at coordinates 0.9 mm anterior to bregma, 1.9 mm lateral, and 2.9 mm below the dura. Animals were allowed to recover after surgery prior to radiotracer studies. […] Twelve nanomoles of [^14C]inulin and either [^125I]Aβ40 or [^125I]Aβ42 was co-injected in a volume of 0.5 μl over 5 minutes using an ultra micropump (World Precision Instruments). The specific activities of peptide were in the range of 80-120 μCi/μg. The percentage of radioactivity remaining in the brain after microinjection was determined as % recovery in brain=100×(Nb/Ni), where Nb is the radioactivity remaining in the brain at the end of the experiment and Ni is the radioactivity microinjected into brain ISF, i.e., the disintegrations per minute for [^14C]inulin and the counts per minute for tricholoracetic acid-precipitable [^125I]radioactivity (intact Aβ). The percentage of Aβ cleared through the BBB was calculated as [(1−Nb(Aβ)/Ni(Aβ))−(1−Nb(inulin)/Ni(inulin))]×100, using a standard time of 30 min. […]

T1 sequence (P21447 whole entry): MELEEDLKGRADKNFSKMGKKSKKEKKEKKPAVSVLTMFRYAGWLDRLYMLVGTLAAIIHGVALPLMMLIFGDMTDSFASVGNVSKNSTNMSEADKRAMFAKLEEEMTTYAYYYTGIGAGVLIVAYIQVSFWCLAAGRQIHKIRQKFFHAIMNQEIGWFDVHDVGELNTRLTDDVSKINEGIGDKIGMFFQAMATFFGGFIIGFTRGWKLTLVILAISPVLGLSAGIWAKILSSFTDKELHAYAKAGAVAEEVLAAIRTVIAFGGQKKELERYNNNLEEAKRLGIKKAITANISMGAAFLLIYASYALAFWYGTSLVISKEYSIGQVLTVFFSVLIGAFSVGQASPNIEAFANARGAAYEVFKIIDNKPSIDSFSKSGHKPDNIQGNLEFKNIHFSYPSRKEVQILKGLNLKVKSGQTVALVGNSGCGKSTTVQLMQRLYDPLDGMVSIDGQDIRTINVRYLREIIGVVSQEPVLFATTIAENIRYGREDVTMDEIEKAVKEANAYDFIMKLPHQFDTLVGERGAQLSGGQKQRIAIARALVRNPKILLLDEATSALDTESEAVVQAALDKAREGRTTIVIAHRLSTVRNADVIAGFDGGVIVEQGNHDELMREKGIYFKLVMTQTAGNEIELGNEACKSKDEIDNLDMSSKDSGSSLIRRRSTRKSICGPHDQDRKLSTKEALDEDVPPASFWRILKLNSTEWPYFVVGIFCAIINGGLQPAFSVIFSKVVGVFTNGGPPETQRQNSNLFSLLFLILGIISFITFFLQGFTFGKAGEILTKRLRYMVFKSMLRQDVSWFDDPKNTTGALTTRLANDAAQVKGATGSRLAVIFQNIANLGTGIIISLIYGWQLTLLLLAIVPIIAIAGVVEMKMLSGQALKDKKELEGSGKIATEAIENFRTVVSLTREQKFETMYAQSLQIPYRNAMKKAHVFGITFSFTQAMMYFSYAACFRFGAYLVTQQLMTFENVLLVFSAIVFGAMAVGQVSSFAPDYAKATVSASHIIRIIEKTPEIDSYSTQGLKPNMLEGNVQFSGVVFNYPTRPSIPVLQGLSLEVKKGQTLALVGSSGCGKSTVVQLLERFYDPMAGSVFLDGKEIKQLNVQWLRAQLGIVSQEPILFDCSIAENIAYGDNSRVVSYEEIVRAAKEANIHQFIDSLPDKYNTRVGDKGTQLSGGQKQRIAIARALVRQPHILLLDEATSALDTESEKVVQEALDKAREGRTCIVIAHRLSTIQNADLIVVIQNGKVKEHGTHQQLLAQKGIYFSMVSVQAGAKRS

COc1cc2c(cc1OC)CN(CCc1ccc(NC(=O)c3cc(OC)c(OC)cc3NC(=O)c3cnc4ccccc4c3)cc1)CC2 [XR9576]
increase of ISF Aβ levels compared to vehicle treated mice (Pgp [1]; eight hours after treatment): ~30% | ISF exchangeable Aβ1-x (eAβ1-x) levels, % of control-treated (vehicle-treated) mice (Pgp [1]; from eight hours after administration, hippocampus, 3 month old APPsw mice): 127.7±3.4% | levels of LRP1 in cerebral vessels (LRP1): did not change | Pgp function at the BBB as determined with [99mTc]Sestamibi analysis (Pgp [2]; intravenous, 80 mg/kg, data not shown): inhibits Pgp function at the BBB

[C-]#[N+]CC(C)(C)OC.[C-]#[N+]CC(C)(C)OC.[C-]#[N+]CC(C)(C)OC.[C-]#[N+]CC(C)(C)OC.[C-]#[N+]CC(C)(C)OC.[C-]#[N+]CC(C)(C)OC.[Tc] [[^99mTc]Sestamibi]
increase in brain penetration in Pgp-null mice versus wild type (Pgp [2]; FVB strain, without APPsw transgene): approximately 3.5 fold | brain content of the tracer (Pgp [2]; Pgp-null mice (FVB)): 0.85±0.14 % ID/g | increase in brain penetration in Pgp-null animals compared with those expressing Pgp (Pgp [2]; animals expressing the APPsw+/- transgene): 3.5 fold | brain content of the tracer (Pgp [2]; wild type controls (FVB)): 0.22±0.02 % injected dose (ID)/gram (g) | blood content of the tracer, difference between the two strains (Pgp [2]; wild type versus Pgp-null, five minutes post-injection): no difference

inulin [[^14C]inulin]
brain recovery (retained) (Pgp [3]): Approximately 85%
